Among the data in patent US8258140B2 (Astrazeneca AB, priority 2009, dated 2012) are IC50 values, retold here.

By IC50 is commonly meant the midpoint of a concentration-inhibition curve.

In this experiment the target is T1, Androgen Receptor (AR) in the LNCaP prostate carcinoma cell line (Homo sapiens, UniProt P10275, T878A).
T1 construct: cell based immuno-fluorescence assay using the LNCaP prostate epithelial cell line; host or cells: LNCaP clone FGC
T1 sequence (P10275 1-920 T878A): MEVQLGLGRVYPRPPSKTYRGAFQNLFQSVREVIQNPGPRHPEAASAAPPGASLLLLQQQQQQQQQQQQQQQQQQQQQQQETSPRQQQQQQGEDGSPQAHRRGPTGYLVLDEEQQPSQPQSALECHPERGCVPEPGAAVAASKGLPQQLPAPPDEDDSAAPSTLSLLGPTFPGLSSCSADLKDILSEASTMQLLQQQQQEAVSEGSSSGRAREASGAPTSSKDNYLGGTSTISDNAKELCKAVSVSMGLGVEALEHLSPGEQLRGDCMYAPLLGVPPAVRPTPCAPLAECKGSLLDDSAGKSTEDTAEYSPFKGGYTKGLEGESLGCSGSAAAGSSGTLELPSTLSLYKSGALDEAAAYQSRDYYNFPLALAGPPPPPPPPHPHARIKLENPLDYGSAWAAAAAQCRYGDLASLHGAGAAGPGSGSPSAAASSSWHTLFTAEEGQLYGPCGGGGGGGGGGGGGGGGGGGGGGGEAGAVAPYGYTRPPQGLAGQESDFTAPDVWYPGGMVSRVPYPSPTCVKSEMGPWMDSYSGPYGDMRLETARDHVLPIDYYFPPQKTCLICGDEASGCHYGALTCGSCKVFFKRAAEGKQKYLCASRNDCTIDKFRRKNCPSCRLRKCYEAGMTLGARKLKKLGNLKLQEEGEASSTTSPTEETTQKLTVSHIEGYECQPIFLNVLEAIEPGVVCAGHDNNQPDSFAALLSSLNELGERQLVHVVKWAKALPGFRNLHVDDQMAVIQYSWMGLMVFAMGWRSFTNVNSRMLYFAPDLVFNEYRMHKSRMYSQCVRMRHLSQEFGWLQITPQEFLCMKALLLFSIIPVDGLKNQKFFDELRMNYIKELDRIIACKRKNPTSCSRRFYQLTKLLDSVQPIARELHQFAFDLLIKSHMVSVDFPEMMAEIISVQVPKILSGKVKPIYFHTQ
Kind of experiment: LNCaP Androgen Receptor Down-Regulation Cell Assay (immunofluorescence end point). It counts as cell-based. The settings on record: LNCaP cells, compound incubation 20-22 hours, concentration giving 50% reduction of the AR signal. The method in brief:
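LNCaP cells (6.5×10^3/well) in phenol-red-free RPMI with 5% charcoal-stripped FBS were treated with compound dilutions for 20–22 h at 37 °C. They were then formaldehyde-fixed, permeabilised, blocked and immunostained for AR with monoclonal antibody AR441.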
Compound `CC(=O)N1CCN(CCCOc2ccc(C3CCN(C4=Nn5c(nnc5C(F)(F)F)CC4)CC3)cc2)CC1` [Example 4.1, 6-[4-[4-[3-(4-acetylpiperazin-1-yl)propoxy]phenyl]piperidin-1-yl]-3-(trifluoromethyl)-7,8-dihydro[1,2,4]triazolo[4,3-b]pyridazine] came in with an IC50 of 1.2 µM.

`CC(=O)N1CCN(CCOc2ccc(C3CCN(C4=Nn5c(nnc5C(F)(F)F)CC4)CC3)cc2)CC1` [Example 5.1, 6-(4-{4-[2-(4-acetylpiperazin-1-yl)ethoxy]phenyl}piperidin-1-yl)-3-(trifluoromethyl)-7,8-dihydro[1,2,4]triazolo[4,3-b]pyridazine]: the IC50 worked out at 1.8 µM.

Compound `CN1CCN(CCOc2ccc(C3CCN(C4=Nn5c(nnc5C(F)(F)F)CC4)CC3)cc2)CC1=O` [Example 37, 1-methyl-4-[2-(4-{1-[3-(trifluoromethyl)-7,8-dihydro[1,2,4]triazolo[4,3-b]pyridazin-6-yl]piperidin-4-yl}phenoxy)ethyl]piperazin-2-one] returned an IC50 of 1.7 µM. Consider `CC(=O)N1CCN(CCOc2ccc(C3CCN(C4=Nn5c(nnc5C(F)(F)F)CC4)CC3)cc2)C[C@H]1C` [Example 51, 6-[4-(4-{2-[(3R)-4-acetyl-3-methylpiperazin-1-yl]ethoxy}phenyl)piperidin-1-yl]-3-(trifluoromethyl)-7,8-dihydro[1,2,4]triazolo[4,3-b]pyridazine], for which the IC50 stood at 0.25 µM.
